Molecular target: T1, ΔF508-CFTR (Homo sapiens, UniProt P13569, DEL508-508)
T1 construct: expressed in transfected cells
Experiment: Membrane potential optical assay for ΔF508-CFTR potentiation
Type: cell-based
Conditions: NIH 3T3 cells
Excerpt: The assay utilizes fluorescent voltage sensing dyes to measure changes in membrane potential using a fluorescent plate reader (e.g., FLIPR III, Molecular Devices, Inc.) as a readout for increase in functional ΔF508-CFTR in NIH 3T3 cells. The driving force for the response is the creation of a chloride ion gradient in conjunction with channel activation by a single liquid addition step after the cells have previously been treated with compounds and subsequently loaded with a voltage sensing dye. To identify potentiators of ΔF508-CFTR, a double-addition HTS assay format was developed. This HTS assay utilizes fluorescent voltage sensing dyes to measure changes in membrane potential on the FLIPR III as a measurement for increase in gating (conductance) of ΔF508 CFTR in temperature-corrected ΔF508 CFTR NIH 3T3 cells. The driving force for the response is a Cl^− ion gradient in conjunction with channel activation with forskolin in a single liquid addition step using a fluorescent plate reader such as FLIPR III after the cells have previously been treated with potentiator compounds (or DMSO vehicle control) and subsequently loaded with a redistribution dye. Bath Solution #1: (in mM) NaCl 160, KCl 4.5, CaCl2 2, MgCl2 1, HEPES 10, pH 7.4 with NaOH. Chloride-free bath solution: Chloride salts in Bath Solution #1 (above) are substituted with gluconate salts. […]

T1 sequence (P13569 with tags, fused parts or gaps DEL508-508): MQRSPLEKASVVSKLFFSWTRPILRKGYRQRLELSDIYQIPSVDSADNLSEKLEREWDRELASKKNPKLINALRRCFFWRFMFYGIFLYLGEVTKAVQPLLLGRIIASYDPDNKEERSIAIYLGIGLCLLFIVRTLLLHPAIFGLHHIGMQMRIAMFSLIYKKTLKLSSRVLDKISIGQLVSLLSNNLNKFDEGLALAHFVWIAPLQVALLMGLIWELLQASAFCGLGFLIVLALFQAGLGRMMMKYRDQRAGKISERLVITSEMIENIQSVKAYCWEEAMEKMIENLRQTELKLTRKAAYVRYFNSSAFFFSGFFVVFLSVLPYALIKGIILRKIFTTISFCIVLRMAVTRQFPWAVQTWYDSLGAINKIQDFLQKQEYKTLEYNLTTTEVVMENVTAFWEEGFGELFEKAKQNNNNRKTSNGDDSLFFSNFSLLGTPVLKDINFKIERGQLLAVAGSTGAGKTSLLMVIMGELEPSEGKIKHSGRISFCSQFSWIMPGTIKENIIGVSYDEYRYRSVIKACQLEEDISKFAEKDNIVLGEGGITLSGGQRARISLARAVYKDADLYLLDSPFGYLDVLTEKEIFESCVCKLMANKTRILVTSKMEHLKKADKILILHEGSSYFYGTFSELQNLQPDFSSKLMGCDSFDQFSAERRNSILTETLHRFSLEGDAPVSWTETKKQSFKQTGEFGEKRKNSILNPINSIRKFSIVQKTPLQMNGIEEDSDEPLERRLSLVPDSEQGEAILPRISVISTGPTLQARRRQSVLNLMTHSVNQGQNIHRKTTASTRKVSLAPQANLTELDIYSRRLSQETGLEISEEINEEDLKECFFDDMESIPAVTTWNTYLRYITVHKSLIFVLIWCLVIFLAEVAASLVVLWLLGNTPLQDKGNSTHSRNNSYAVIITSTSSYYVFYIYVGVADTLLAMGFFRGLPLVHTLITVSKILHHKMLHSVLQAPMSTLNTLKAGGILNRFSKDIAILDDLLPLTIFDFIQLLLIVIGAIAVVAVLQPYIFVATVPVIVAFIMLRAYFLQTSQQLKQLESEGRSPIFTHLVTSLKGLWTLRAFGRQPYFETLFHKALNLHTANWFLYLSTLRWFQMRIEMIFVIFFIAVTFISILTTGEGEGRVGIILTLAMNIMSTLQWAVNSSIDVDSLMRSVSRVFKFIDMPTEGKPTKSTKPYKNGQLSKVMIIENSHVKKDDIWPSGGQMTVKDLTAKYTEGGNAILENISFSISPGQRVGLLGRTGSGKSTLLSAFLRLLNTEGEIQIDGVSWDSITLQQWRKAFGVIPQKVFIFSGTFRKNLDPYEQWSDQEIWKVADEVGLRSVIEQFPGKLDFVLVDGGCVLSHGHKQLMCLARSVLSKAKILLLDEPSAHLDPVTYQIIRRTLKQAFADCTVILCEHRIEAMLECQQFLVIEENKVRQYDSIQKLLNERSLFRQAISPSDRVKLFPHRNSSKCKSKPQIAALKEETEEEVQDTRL

- EC50: < 10 µM
Structure (SMILES): CC(C)(C)c1cc(C(C)(C)C)c(NC(=O)c2c[nH]c3ccccc3c2=O)cc1O [Compound 1, N-[2,4-bis(1,1-dimethylethyl)-5-hydroxyphenyl]-1,4-dihydro-4-oxoquinoline-3-carboxamide]

From patent US20140336219A2, “Pharmaceutical Compositions and Administrations Thereof” (Vertex Pharmaceuticals Incorporated, priority 2011, published 2014)
